Measurements: patent publication US6462086B1, “Non-malignant disease treatment with Ras antagonists” (Ramot University Authority for Applied Research and …, priority 1999, dated 2002)
Entries after “also recorded” stand apart in the source; their conditions may differ.

Assays:
EAN in Lewis rats = assay: EAN rats, electrophysiology (tail nerve stimulation, CMAP); format: in vivo, rat; conditions: day 20; FTS for 10 or 28 days
Procedure: The animal was anesthetized with phenobarbital. […] Previous experience has shown that smaller amounts are necessary during the acute EAN disease phase in order to avoid mortality. Mono-polar needle electrodes were used to stimulate the sciatic nerve and the response was measured in the plantar muscle by a surface ring electrode (8). Alternatively, the tail nerves were stimulated and tail muscle response measured by the same electrodes. […] The tail response was therefore be used in the early disease stage (days 18-22). The latency of responses to distal and proximal stimulation were used to calculate nerve conduction velocity. The amplitude of the responses was used to assess conduction block. Electrophysiological assays were performed on day 20 in the 3 groups of rats described in the previous section.

MRL/lpr mice = assay: Serum autoantibodies by ELISA in MRL/lpr and MRL/++ mice; format: in vivo, mouse; conditions: 16 weeks of age
Procedure: FTS was synthesized as previously described (13). FTS was stored in chloroform, which was evaporated under a stream of nitrogen immediately before use. The powder was dissolved in absolute ethanol and diluted to the desired concentration in sterile saline made basic with NaOH. 200 μl of carrier solution containing 100 μg of FTS (5 mg/kg) were injected intraperitoneally (i.p.) into each mouse. Control solution was prepared at the same time starting with a chloroform solution.
Mice were treated once a day, 3-5 times a week starting from 6 or 10 weeks of age until 18 weeks of age.
The mice were bled at 16 weeks of age by retro-orbital sinus puncture and the sera were separated by centrifugation and stored at −70° C. until assayed. The sera were tested by ELISA for the presence of different autoantibodies as previously described (15, 16). This included serum dependent (β2-GPI dependent) and independent antibodies to cardiolipin (aCL) and antibodies to single and double stranded DNA (anti-ssDNA, anti-dsDNA).

[1] = test system: lymphocyte surface markers (CD3, CD4, CD8, IA-k, Vb17, CD62L); assay: FACS analysis of surface markers on lymph node lymphocytes of EAE mice; format: in vivo, mouse; conditions: percentages of positively stained cells among 10,000; EAE mice + FTS, day 10
Procedure: Single cell suspensions were prepared from the draining lymph nodes of mice in which EAE was induced, on day 10 post immunization for EAE-induction. Cells were incubated on ice, for 30 min with 20 μl of the monoclonal FITC-conjugated anti-CD62L, anti-IA-k ([…]) and anti-Vb17 antibodies (Becton and Dickinson, USA). The proportions of cells expressing these surface markers were examined by a fluoresecence activated cell sorter (FACS), and were calculated as the percentages of positively stained cells among 10,000 cells enumerated.

[2] = test system: TAA-induced acute liver injury in rats; assay: TAA-induced acute liver damage in FTS-pretreated rats; format: in vivo, rat; conditions: TAA + FTS 5 mg/kg daily from 3 days before TAA; 52 h; Mean ± SD, n = 5
Procedure: To exclude the possibility that the effect of FTS on hepatic fibrosis is due to anti-inflammatory rather than anti fibrotic activity, acute liver damage was induced by TAA (3 injections of 400 mg/kg, i.p.) in a separate group of FTS-pretreated rats. Blood was drawn 52 h after the first TAA injection for the measurement of serum levels of hepatic enzymes and blood ammonia, and liver tissue was […]. TAA was administered in 3 consecutive injections of 400 mg/kg, i.p. in 24 h intervals. Serum levels of liver enzymes, blood ammonia and liver histology were determined 52 h after the first TAA injection. FTS administration (5 mg/kg daily), was started 3 days prior to the first TAA injection.

[3] = test system: lymphocytes from draining lymph nodes of EAE SJL mice; assay: Ex vivo proliferative responses of lymph node lymphocytes from FTS-treated EAE mice; format: in vivo, mouse; conditions: for proliferative response of lymphocytes (cpm): FTS 5 mg/Kg i.p. daily, day 10
[4] = test system: carotid balloon injury in Wistar rats; assay: Rat carotid balloon injury, intimal hyperplasia (morphometry); format: in vivo
Procedure: Group A: Four rats received daily intraperitoneal injections of FTS (5 mg/Kg) starting from the day of injury induction until sacrifice, 14 days later.
Group B: Four rats received daily intraperitoneal injections of control vehicle starting from the day of injury induction until sacrifice, 14 days later.
Animals were anesthetized by intraperitoneal injection of Ketamin (80 mg/Kg) and Xylazine (5 mg/Kg). […] Briefly, a balloon catheter (2F Fogarty) was passed through the external carotid into the aorta; the balloon was inflated with sufficient water to distend the common carotid artery and then pulled back to the external carotid. This procedure was repeated three times, and then the catheter was removed. After 14 days, the animals were sacrificed and the right and left carotid arteries were taken out and fixed in 4% paraformaldehyde until embedding in Paraffin. The arteries were cut in 10 um sections and stained with H&E and computer-assisted morphometric analyses were performed. The tested parameters were: intimal area, medial area, intimal/medial ratio and lumen area. Additionally, the %CSAN-N (% cross sectional area neointimal-neointamal) was calculated [IEL area-Lumen area]×100/IEL (a measure of the degree to which the IEL area is reduced by neointimal with greater normalization of the effect of changes in vessel wall size. Vasular remodeling process were further evaluated by computing the amount of plaque relative to the EEL (external elastic lamina) area.

CR-EAE in SJL/J mice = assay: Chronic-relapsing EAE (CR-EAE) by transfer of PLP-sensitized lymphocytes, clinical signs; format: in vivo, mouse
[5] = FTS-treated mice compared to controls

CC(C)=CCC/C(C)=C/CC/C(C)=C/CSc1ccccc1C(=O)O [FTS, farnesyl thiosalicylic acid]
compound muscle action potentials (CMAPs), tail muscle (EAN in Lewis rats): significant amelioration
levels of anti-dsDNA antibodies (MRL/lpr mice): did lower the levels; also recorded: significant decrease
levels of anti-ssDNA antibodies (MRL/lpr mice): did not affect the levels
levels of non-serum dependent aCL antibodies (MRL/lpr mice): did not affect the levels
levels of β2-GPI dependent aCL antibodies (MRL/lpr mice): did lower the levels; also recorded: significant decrease
proportion of lymphocytes expressing CD3 [1]: 94.2 ± 2.7
proportion of lymphocytes expressing CD4 [1]: 51.6 ± 1.9
proportion of lymphocytes expressing CD8 [1]: 26.2 ± 9.2
proportion of lymphocytes expressing CD62L [1]: 67.1 ± 7.3
proportion of lymphocytes expressing IA-k [1]: 28.3 ± 3.2
proportion of lymphocytes expressing Vb17 [1]: 11.3 ± 2.1
AST [2]: 2996 ± 364 IU/l
Blood Ammonia [2]: 8.9 ± 2.3 µg/mL
Hepatic inflammation and cell necrosis (score of 0-3) [2]: 2.5 ± 0.6
change of reactivity to ConA [3, 5]: no change of reactivity
decrease in the reactivity of lymphocytes to GMBP [3, 5]: 83%
decrease in the reactivity of lymphocytes to PLP-peptide [3, 5]: 72%
decrease of the reactivity to PPD and to LPS [3, 5]: 50-57%
proliferative response of lymphocytes (cpm) ([3]; antigen: GMBP): 7,864 ± 636 cpm
stimulation index (S.I.) ([3]; antigen: GMBP, FTS-treated EAE mice): 1.8
proliferative response of lymphocytes (cpm) ([3]; antigen: PLP): 8,901 ± 2,014 cpm
stimulation index (S.I.) ([3]; antigen: PLP, FTS-treated EAE mice): 2.1
proliferative response of lymphocytes (cpm) ([3]; antigen: PPD): 27,342 ± 3,627 cpm
stimulation index (S.I.) ([3]; antigen: PPD, FTS-treated EAE mice): 6.4
proliferative response of lymphocytes (cpm) ([3]; antigen: none): 4,266 ± 508 cpm
reduction in response to myelin specific antigens ([3]; ex vivo, FTS-treated EAE mice): > 78%
proliferative response of lymphocytes (cpm) ([3]; mitogen: ConA): 86,870 ± 7,483 cpm
stimulation index (S.I.) ([3]; mitogen: ConA, FTS-treated EAE mice): 20.4
proliferative response of lymphocytes (cpm) ([3]; mitogen: LPS): 45,196 ± 4,246 cpm
stimulation index (S.I.) ([3]; mitogen: LPS, FTS-treated EAE mice): 10.6
reduction of intimal area ([4]; FTS 5 mg/Kg i.p. daily 14 days vs control): 76%
medial area ([4]; FTS 5 mg/Kg i.p. daily 14 days, control 1.2±0.14): 0.91 mm^2
Intimal area ([4]; FTS 5 mg/Kg i.p. daily 14 days, control 1.61): 0.38 mm^2
luminal area ([4]; FTS 5 mg/Kg i.p. daily 14 days, control 2.30): 1.45±0.34 mm^2
%CSAN-N ([4]; FTS 5 mg/Kg i.p. daily 14 days, control 52.4±7.4): 15.5±4.3%
clinical course of CR-EAE (FIG. 2) (CR-EAE in SJL/J mice; FTS 5 mg/kg/day from day of cell transfer): milder form of CR-EAE
mortality in CR-EAE (CR-EAE in SJL/J mice; FTS 5 mg/kg/day, vehicle group 30%): none of them died
total relapses of the paralytic disease (CR-EAE in SJL/J mice; follow-up 2-3 months, n=7, control 9): 5
